Results published in US10704122B2, “Simple chemical method for the separation of rare earth metals” (THE TRUSTEES OF THE UNIVERSITY OF PENNSYLVANIA, priority 2014, dated 2020).

Columns and labels:
[1] = Air stability observation; format: physicochemical; conditions: solid and solution states
[2] = Solubility in benzene quantified by 1H NMR of saturated C6D6 solutions; format: physicochemical; conditions: 1H NMR against ferrocene internal standard
Description: The absence of mixed-metal dimer formation prompted a search for conditions where the dimerization of Nd(TriNOx)THF could be exploited for solubility differences between the Nd and Dy species. […] These solubilities were quantified by ^1H NMR spectroscopy, where saturated C6D6 solutions of the complexes were prepared and measured against a ferrocene internal standard.

In the case of `CC(C)(C)N(O)c1ccccc1CN(Cc1ccccc1N(O)C(C)(C)C)Cc1ccccc1N(O)C(C)(C)C` [H3TriNOx, tris(2-tert-butylhydroxylaminato)benzylamine], the air stability [1] is reported as “air stable in both the solid and solution states”.
Work on “Nd[(2-(^tBuNOH)CH2—C6H4)3N]THF [Nd(TriNOx)THF]” yielded a solubility in benzene [2] of 60 mmol/L.
Work on “Dy[(2-(^tBuNOH)CH2—C6H4)3N]THF [Dy(TriNOx)THF]” yielded a solubility in benzene [2] of 1.2 mmol/L.
